Test results as given in patent publication US20190382850A1, “METHOD FOR IDENTIFYING MITOCHONDRIAL DNA IN EXTRACELLULAR VESICLES AND TREATMENT OF MTDNA-RELATED DISORDERS AND CANCER” (Memorial Sloan-Kettering Cancer Center, priority 2017, published 2019).

System: luminal breast cancer cells and xenograft derived cells
Assay: mtDNA level (qPCR copy number) in HT-induced dormant cells
Format: cell-based, human
Conditions: fulvestrant 10 μM for 2 months; several models of HT-induced dormancy; FIG. 5b
Protocol: (Panel b) mtDNA level (qPCR as fold change, naïve cells was used as reference) in luminal breast cancer cells and xenograft derived cells (multiple models)±HT (fulvestrant, 10 μM for 2 months). (Panel c) Dormant MCF7 cells (HTD) were isolated and treated with 3×10^9 mCAF-derived EVs (wt-mtDNA^hi or ρ0-mtDNA^lo) weekly ×4+HT (fulvestrant, 10 μM/weekly). After 40 days, mammosphere (MS) number and mitochondrial membrane potential (Δψ) by TMRE staining (red) in HTR/mito^hi EV and HTD/mito^lo EV educated cells was determined; scale bar 15 μm. […] (Panel f) Murine mitochondrial RNA expression (14 genes, as fold change -log10scale-) by qRT-PCR in HTR and HTS cells (panel e) (reference HTDorm cells; MCF7); the expression of nuclear encoded murine (non-mitochondrial RNA) transcripts was also determined (Cox4, β2M). […]
Generation of HTD cells was performed by treating ER+(GFP+) breast cancer cell lines (MCF7, ZR751, BT474) with HT (fulvestrant, 10 μM) for 2 months. […] Viable cell number was subsequently determined using trypan blue exclusion and cell counting using bright field microscopy HTD cells were then cultured in vitro or injected in vivo for further studies. […] Proliferation was determined by Cal cein AM technique (InVitrogen). […] After 40 days, mammosphere number (bright field microscopy) was determined after 40 days. […] Tumor growth was determined by BLI and after necropsy. […]

For C[C@]12CC[C@@H]3c4ccc(O)cc4C[C@@H](CCCCCCCCC[S+]([O-])CCCC(F)(F)C(F)(F)F)[C@H]3[C@@H]1CC[C@@H]2O (stereo partly shown) [fulvestrant], which “reduction of mtDNA level (copy number) vs control” value is on record?
The value was 70-90%.
